From patent publication US10336702B2, “Pharmaceutically active compounds” (BERGENBIO ASA, priority 2015, dated 2019) come the findings set out here.

The target in one experiment is T1, p-Akt3 in WM115 cells (Homo sapiens, UniProt Q9Y243).
T1 construct: SureFire assays to detect cellular p-Akt1, p-Akt2 and p-Akt3 levels in WM115 cells (Akt2/3) and LNCaP cells (Akt1); endogenous in cells; host or cells: WM115 (ECACC 91061232), insulin-stimulated
The experiment can be described thus: Phospho-Akt cellular SureFire assay, p-Akt3 in WM115 cells. The experiment is classed as cell-based. To be noted: insulin stimulated, read-out: Biological Assay 2 IC50 (nM) Akt3 WM115. The essentials:
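WM115 cells were serum-reduced to 0.1% FBS, stimulated with 100 nM insulin for 10 min, then exposed to compound (0.3% DMSO) for 15 min at 37 °C. Lysates were assayed for Thr308-phosphorylated Akt3 by AlphaScreen SureFire using an isoform-specific total Akt3 capture antibody. IC50 was derived from a 4-parameter fit.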

A further experiment addresses T2, Akt2 (Homo sapiens, UniProt P31751).
T2 construct: unspecified tag, removed (detagged) (cleaved yes); purchased SignalChem and Proteros (Akt2); Merck Millipore (PDK1) 14-452 (PDK1); none given for Akt2
As to the kind of experiment: Akt activation assay (PDK1-mediated activation, LANCE Ultra crosstide TR-FRET), Akt2. The experiment is classed as biochemical. To be noted: read-out: Biological Assay 1 IC50 (nM) Akt2. In short, it runs like this: (§1)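 Unactivated Akt (5 nM Akt1, 15 or 5 nM Akt2, 3 or 5 nM Akt3, by supplier) preincubated with compound, then activated by 5 nM PDK1 on DOPS/DOPC/PtdIns(3,4,5)P3 vesicles with 100 μM ATP and 100 nM Ulight-crosstide, pH 7.5, 30 min. Eu-anti-phospho-crosstide TR-FRET (665/615 nm); IC50 by 4-parameter fit.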
(In general: TR-FRET usually uses a lanthanide donor and a delayed reading to cut background.)

The next experiment deals with T3, p-Akt2 in WM115 cells (Homo sapiens, UniProt P31751).
T3 construct: SureFire assays to detect cellular p-Akt1, p-Akt2 and p-Akt3 levels in WM115 cells (Akt2/3) and LNCaP cells (Akt1); endogenous in cells; host or cells: WM115 (ECACC 91061232), insulin-stimulated
T3 sequence (P31751 whole entry): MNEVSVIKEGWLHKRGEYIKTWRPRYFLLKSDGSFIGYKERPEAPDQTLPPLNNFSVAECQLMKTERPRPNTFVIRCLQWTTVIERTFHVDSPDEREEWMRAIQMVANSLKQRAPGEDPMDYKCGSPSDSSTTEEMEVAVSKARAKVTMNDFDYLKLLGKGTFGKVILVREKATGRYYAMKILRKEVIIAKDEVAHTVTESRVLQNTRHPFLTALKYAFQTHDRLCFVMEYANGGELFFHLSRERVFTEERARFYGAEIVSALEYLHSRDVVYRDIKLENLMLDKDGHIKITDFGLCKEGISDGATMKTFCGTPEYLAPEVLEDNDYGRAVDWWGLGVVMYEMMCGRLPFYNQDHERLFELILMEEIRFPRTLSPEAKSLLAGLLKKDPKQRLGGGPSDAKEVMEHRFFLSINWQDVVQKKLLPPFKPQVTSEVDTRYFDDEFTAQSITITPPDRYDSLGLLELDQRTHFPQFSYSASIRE
As to the kind of experiment: Phospho-Akt cellular SureFire assay, p-Akt2 in WM115 cells. The format is cell-based. To be noted: insulin stimulated, read-out: Biological Assay 2 IC50 (nM) Akt2 WM115. The essentials: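 WM115 cells in 0.1% FBS medium stimulated 10 min with 100 nM insulin, then exposed to compound for 15 min at 37° C (0.3% DMSO final). Lysates assayed by AlphaScreen with anti-(pThr308)Akt and isoform-specific total Akt2 antibodies; IC50 from 4-parameter fit.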

In another experiment the target is T4, Akt1 (Homo sapiens, UniProt P31749).
T4 construct: unspecified tag, removed (detagged) (cleaved yes); purchased SignalChem and Proteros (Akt1); Merck Millipore (PDK1) 14-452 (PDK1); none given for Akt1
T4 sequence (P31749 whole entry): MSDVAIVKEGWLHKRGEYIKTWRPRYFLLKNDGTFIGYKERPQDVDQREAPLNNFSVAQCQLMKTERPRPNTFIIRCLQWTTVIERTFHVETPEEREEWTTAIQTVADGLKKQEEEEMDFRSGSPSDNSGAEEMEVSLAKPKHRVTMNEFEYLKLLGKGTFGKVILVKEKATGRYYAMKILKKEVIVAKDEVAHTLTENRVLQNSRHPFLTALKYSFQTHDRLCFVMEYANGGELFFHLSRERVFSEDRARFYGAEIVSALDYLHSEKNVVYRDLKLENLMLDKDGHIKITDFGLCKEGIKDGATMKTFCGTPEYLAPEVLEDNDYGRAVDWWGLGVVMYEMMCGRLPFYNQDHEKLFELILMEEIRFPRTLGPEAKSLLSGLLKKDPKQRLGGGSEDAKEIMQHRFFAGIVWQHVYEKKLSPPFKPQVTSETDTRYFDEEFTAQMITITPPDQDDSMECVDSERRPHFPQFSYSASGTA
As to the kind of experiment: Akt activation assay (PDK1-mediated activation, LANCE Ultra crosstide TR-FRET), Akt1. To be noted: read-out: Biological Assay 1 IC50 (nM) Akt1. The format is biochemical. The essentials:
as §1

Another experiment has as its target T5, p-Akt1 in LNCaP cells (Homo sapiens, UniProt P31749).
T5 construct: SureFire assays to detect cellular p-Akt1, p-Akt2 and p-Akt3 levels in WM115 cells (Akt2/3) and LNCaP cells (Akt1); endogenous in cells; host or cells: LNCaP (ECACC 89110211)
As to the kind of experiment: Phospho-Akt cellular SureFire assay, p-Akt1 in LNCaP cells. The format is cell-based. To be noted: read-out: Biological Assay 2 IC50 (nM) Akt1 LNCaP. In short, it runs like this: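 LNCaP cells, 5×10^4/well, seeded overnight, switched to 0.1% FBS medium without insulin stimulation, then compound for 15 min at 37 °C (0.3% DMSO). Lysate p-Akt1 (pThr308) by AlphaScreen SureFire, two 2 h incubations at room temperature; IC50 by 4-parameter fit.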

The next experiment addresses T6, Akt3 (Homo sapiens, UniProt Q9Y243).
T6 construct: unspecified tag, removed (detagged) (cleaved yes); purchased SignalChem and Proteros (Akt3); Merck Millipore (PDK1) 14-452 (PDK1); none given for Akt3
The experiment can be described thus: Akt activation assay (PDK1-mediated activation, LANCE Ultra crosstide TR-FRET), Akt3. The experiment is classed as biochemical. The note with it: read-out: Biological Assay 1 IC50 (nM) Akt3. In short, it runs like this:
as §1

T6 sequence (Q9Y243 whole entry): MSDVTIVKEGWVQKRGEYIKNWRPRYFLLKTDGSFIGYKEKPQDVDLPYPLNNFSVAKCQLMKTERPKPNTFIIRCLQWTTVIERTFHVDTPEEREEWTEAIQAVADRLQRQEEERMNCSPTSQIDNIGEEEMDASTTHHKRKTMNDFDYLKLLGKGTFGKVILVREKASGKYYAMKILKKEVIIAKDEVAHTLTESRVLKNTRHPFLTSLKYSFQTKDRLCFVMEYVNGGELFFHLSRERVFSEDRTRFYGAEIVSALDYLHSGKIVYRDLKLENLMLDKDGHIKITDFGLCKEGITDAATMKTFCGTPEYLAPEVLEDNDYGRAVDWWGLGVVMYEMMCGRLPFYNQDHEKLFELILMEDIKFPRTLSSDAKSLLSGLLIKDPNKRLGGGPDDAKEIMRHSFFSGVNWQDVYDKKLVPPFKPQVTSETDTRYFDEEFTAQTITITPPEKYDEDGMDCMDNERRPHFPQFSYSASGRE
T1 sequence (Q9Y243 whole entry): as above
T5 sequence (P31749 whole entry): as the sequence (P31749 whole entry) above
T2 sequence (P31751 whole entry): as the sequence (P31751 whole entry) above

The term IC50 denotes the point on the concentration scale where inhibition reaches its midpoint. On to `CN(C(=O)C1CC1)[C@H]1CC[C@H](CC(=O)Nc2cc(-c3ccccc3)c(-c3ccc([C@]4(N)C[C@H](F)C4)cc3)nn2)CC1` [Example 71, N-(trans-4-(2-((6-(4-(trans-1-amino-3-fluorocyclobutyl)phenyl)-5-phenylpyridazin-3-yl)amino)-2-oxoethyl)cyclohexyl)-N-methylcyclopropanecarboxamide], for which the IC50 on p-Akt3 in WM115 cells is 44 nM; on Akt2, 350 nM; at p-Akt2 in WM115 cells, 1300 nM; on Akt1, 10000 nM; at p-Akt1 in LNCaP cells it was 9100 nM; on Akt3 it was 16 nM.
Regarding `CC(C)(N)c1ccc(-c2ncc(NC(=O)C[C@H]3CC[C@H](C(=O)N4CCCC4)CC3)cc2-c2ccccc2)cc1` [Example A47, N-(6-(4-(2-aminopropan-2-yl)phenyl)-5-phenylpyridin-3-yl)-2-(trans-4-(pyrrolidine-1-carbonyl)cyclohexyl)acetamide], the IC50 was 440 nM on p-Akt3 in WM115 cells; 2100 nM on Akt2; 11000 nM on p-Akt2 in WM115 cells; above 30000 nM at Akt1; above 30000 nM on p-Akt1 in LNCaP cells; 370 nM on Akt3.
As for `CC(=O)N(C)[C@H]1CC[C@H](CC(=O)Nc2cnc(-c3ccc(C(C)(C)N)cc3)c(-c3ccsc3)c2)CC1` [Example 6, N-(6-(4-(2-aminopropan-2-yl)phenyl)-5-(thiophen-3-yl)pyridin-3-yl)-2-(trans-4-(N-methylacetamido)cyclohexyl)acetamide], the IC50 on p-Akt3 in WM115 cells is 340 nM; at Akt2, above 24000 nM; at p-Akt2 in WM115 cells, above 21000 nM; at Akt1, above 30000 nM; on p-Akt1 in LNCaP cells, above 30000 nM; at Akt3, 720 nM.
As to `CC(C)(N)c1ccc(-c2cnc(NC(=O)C[C@H]3CC[C@H](N4CCCC4=O)CC3)cc2-c2ccccc2)cc1` [Example A49, N-(5-(4-(2-aminopropan-2-yl)phenyl)-4-phenylpyridin-2-yl)-2-(trans-4-(2-oxopyrrolidin-1-yl)cyclohexyl)acetamide], the IC50 is 200 nM on p-Akt3 in WM115 cells; 3600 nM at Akt2; 4400 nM at p-Akt2 in WM115 cells; above 30000 nM on Akt1; above 30000 nM on p-Akt1 in LNCaP cells; 120 nM at Akt3.
Consider `COC(=O)N(C)[C@H]1CC[C@H](CC(=O)Nc2cc(-c3ccccc3)c(-c3ccc(C4(N)CC(F)(F)C4)cc3)nn2)CC1` [Example 60, Methyl (trans-4-(2-((6-(4-(1-amino-3,3-difluorocyclobutyl)phenyl)-5-phenylpyridazin-3-yl)amino)-2-oxoethyl)cyclohexyl)(methyl)carbamate], for which the concentration for half-maximal inhibition (IC50) on p-Akt3 in WM115 cells is 290 nM; on Akt2 it was 710 nM; on p-Akt2 in WM115 cells, 8800 nM; on Akt1 it was above 30000 nM; on p-Akt1 in LNCaP cells, above 30000 nM; at Akt3, 50 nM.
In the case of `COC(=O)N(C)[C@H]1CC[C@H](CC(=O)Nc2cnc(-c3ccc(C4(N)CCC4)cc3)c(-c3ccccc3)c2)CC1` [Example A1, Methyl (trans-4-(2-((6-(4-(1-aminocyclobutyl)phenyl)-5-phenylpyridin-3-yl)amino)-2-oxoethyl)cyclohexyl)(methyl)carbamate], the IC50 on p-Akt3 in WM115 cells was 130 nM; on Akt2 it was 420 nM; on p-Akt2 in WM115 cells, 2800 nM; at Akt1, 4000 nM; on p-Akt1 in LNCaP cells it was above 16000 nM; at Akt3, 110 nM.
Turning to `CCOC(=O)N(C)[C@H]1CC[C@H](CC(=O)Nc2cc(-c3ccccc3)c(-c3ccc([C@]4(N)C[C@](C)(O)C4)cc3)cn2)CC1` [Example A73, Ethyl (trans-4-(2-((5-(4-(trans-1-amino-3-hydroxy-3-methylcyclobutyl)phenyl)-4-phenylpyridin-2-yl)amino)-2-oxoethyl)cyclohexyl)(methyl)carbamate], the IC50 at p-Akt3 in WM115 cells stood at 77 nM; on Akt2, 130 nM; on p-Akt2 in WM115 cells, 1200 nM; at Akt1 it was 8800 nM; on p-Akt1 in LNCaP cells it was 2900 nM; on Akt3, 7 nM.
